Measurements published in patent publication US20130296358A1, “3-SPIROCYCLIC PIPERIDINE DERIVATIVES AS GHRELIN RECEPTOR AGONISTS” (priority 2012, published 2013).

Experiments:
[1] = biological target: T1, human recombinant ghrelin receptor (GHS-R1a) (Homo sapiens, UniProt Q92847); assay: cAMP assay (HTRF), CHO-hGHS-R1a cells; assay type: cell-based; conditions: relative to the ghrelin response (defined as 100%)
T1 construct: host or cells: CHO-K1
Description: (§1) Chinese hamster ovary (CHO-K1) cells expressing human recombinant ghrelin receptor (GHS-R1a) were purchased from Euroscreen (ES-410-C) and propagated in UltraCHO medium containing glutamine and supplemented with 1% heat inactivated foetal calf serum (FCS), 100 U/ml penicillin, 100 mg/l streptomycin and 0.8 g/l geneticin. Cells were sub-cultured twice a week with a 1:10 dilution. For passaging, cells were washed with 1× DPBS without calcium and magnesium, trypsinised for 10 min with 0.05% Trypsin/EDTA and resuspended in cell culture medium.
The Homogeneous Time-Resolved Fluorescence (HTRF) cAMP dynamic 2 kit (Cisbio International, France) was used as follows. CHO-hGHS—R1a or CHO-rGHS—R1a cells were seeded in a volume of 25 μl culture media at 10,000 cells/well (400,000 cells/ml) in Greiner white 384-well high volume plates and incubated overnight (18-24 h) at 37° C./5% CO2. Then, media was removed and 6 μl assay buffer [HBSS, 10 mM Hepes, 0.2% (w/v) BSA, 1.7 mM IBMX, (pH7.4)] were added to the wells. To generate a dose response up to 30 μM, 10 mM compound stocks in 100% (v/v) DMSO were firstly diluted in 50% (v/v) DMSO followed by a further dilution into assay buffer. Then, 4 μl of 2.5× compound (dose response as 9 point log serial dilution in assay buffer from 30 μM as maximum concentration) were added to each well achieving a final DMSO assay concentration of 0.8% (v/v). 0.1 μM forskolin was added as positive control. After 30 min (rGHS—R1a cell line) or 60 min (hGHS—R1a cell line) incubation at 37° C./5% CO2, 5 μl of cAMP-d2 and 5 μl of anti-cAMP antibody-cryptate, (both made in lysis buffer), were added to the plate followed by 1 h incubation at RT. During this time, cAMP produced by the cells competed with cAMP-d2 for the anti-cAMP antibody-cryptate molecule. Then, the plate was read on the Pherastar instrument (BMG, Germany) at two different emission wavelengths ([…]). Increasing levels of endogenous cAMP produced by cells could be followed by a decrease of FRET fluorescent signal and viceversa. Values represented by a change in arbitrary fluorescence ratios (665/620) were converted into cAMP concentrations by using a standard curve, the reagents for which were supplied with the kit. EC50 values of agonists were calculated using the nonlinear logistic function of the Prism 5 software (GraphPad, USA). Emax were expressed as relative values of the ghrelin response, which was defined as 100%.

[2] = biological target: T1, human recombinant ghrelin receptor (GHS-R1a); assay: Calcium assay, CHO-K1 cells expressing hGHS-R1a (Fluo-4); assay type: cell-based
Description: as §1
Cells were diluted to achieve 1×10^6 cells/ml, seeded in 384-well black clear bottom CellBind plates at 25000 cells/well (25u1) and incubated overnight at 37° C./5% CO2 Cells were expected to be 85-90% confluent on the day of assay (checked under the microscope) to ensure a high quality assay. Media was manually removed and 40 μl of loading solution containing probenecid and Fluo-4 no wash dye (a calcium indicator, Invitrogen F36206) were added to each well. After 30 min at 37° C. followed by another 30 min at RT, cpds were added to the wells. To generate a dose response up to 30 μM, 10 mM compound stocks in 100% (v/v) DMSO were firstly diluted in 50% (v/v) DMSO. Then, serial dilutions aimed at a full logarithmic dose responses (8 point) were performed in assay buffer [1×HBSS, 20 mM Hepes, 0.1% (w/v) BSA] to give 2.5% (v/v) DMSO and 5× final compound concentrations. The final assay DMSO concentration was 0.5% (v/v). After loading the cells with Fluo-4 containing solution, plates were read on a CeIlLux instrument (Perkin Elmer). A protocol set up to add 10 μl of 5× compound and to read the plate for 60sec after adding the compound at 17th sec was used. Fluorescence excitation took place at 494 nm and emission at 516 nm. EC50 values of agonists were calculated by fitting the percent stimulation over background [(Max-Min)/Min] using the nonlinear logistic function of the Prism 5 software (GraphPad, USA).

rat fundus = assay: Rat fundus contractility assay (EFS-induced contraction of muscle strips); conditions: for EC50: increase of EFS-induced contraction, mean of preparations from at least 3 animals; for Emax / Emax/%: relative to the response to ghrelin (100 nM), defined as 100%
Description: Male Sprague Dawley rats (180-250 g) were culled by cervical dislocation and the fundus was removed. Each fundus was placed on a Krebs Henseleit (KH) buffer soaked dissection dish and cut along the long curvature to form a flattened sheet that was pinned in each corner. Four adjacent longitudinal strips (10×3 mm) were cut and the mucosa removed by sharp dissection. Each muscle strip was mounted in a 10 ml organ bath containing oxygenated KH at 37° C. Each strip was connected to an isometric force transducer, calibrated initially using a 5 g weight. The signal (g tension) was amplified and responses recorded by a Powerlab data capture system, connected to a computer running Labchart software (version 5.0). Tissues were placed under 1 g tension for an equilibration period of 30 min or until the baseline tension had stabilised. Carbachol (CCh, 100 nM) was then administered to establish the maximum contractile response of each preparation. Tissues were washed thoroughly and left for 30 min to re-equilibrate. Next, the muscle strips underwent electrical field stimulation (EFS). Maximal EFS pulse trains of 12V, 5 Hz, 0.1 msec pulse width, for 2 sec every 60 sec were applied until consistent electrically-stimulated phasic contractions were recorded. The voltage was then reduced in 1V increments until a consistent submaximal (EC50-75) EFS response was observed. Ghrelin (100 nM) was administered and left until a maximum response was obtained. Tissues were then washed thoroughly and left for 30 min. Once the EFS-induced contraction had re-stabilised, cumulative additions (10 nM-10 μM) of each test compound were administered. Individual responses were calculated by determining the peak of the EFS-induced contraction minus the baseline. […] The mean EC50 value for compounds was generated from data obtained on stomach preparations from at least 3 different animals.

[3] = CHO-K1, relative to the Emax induced by MK-0677 (defined as 100%), read-out: hGHS-R1a Ca assay Emax/%

T1 sequence (Q92847 whole entry): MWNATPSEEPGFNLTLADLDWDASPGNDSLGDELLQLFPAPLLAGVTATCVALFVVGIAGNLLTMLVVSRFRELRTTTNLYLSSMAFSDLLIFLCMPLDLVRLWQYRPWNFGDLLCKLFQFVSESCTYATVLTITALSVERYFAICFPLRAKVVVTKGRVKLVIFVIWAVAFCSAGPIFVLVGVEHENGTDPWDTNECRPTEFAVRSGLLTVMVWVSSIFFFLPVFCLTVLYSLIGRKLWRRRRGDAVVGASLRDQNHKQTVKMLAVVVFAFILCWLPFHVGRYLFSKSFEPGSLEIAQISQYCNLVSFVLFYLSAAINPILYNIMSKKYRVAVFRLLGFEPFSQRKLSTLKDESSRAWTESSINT

Structure (SMILES) | Emax [1] [%] | Emax [2, 3] [%] | other results
CN1CC(c2ccc(Cl)cc2)C2(CCCN(C(=O)[C@@H](COCc3ccccc3)NC(=O)C(C)(C)N)C2)C1=O (single isomer, unassigned) [Example 1.8] | 149 | 102 | 
CCN1CC(c2ccccc2)C2(CCCN(C(=O)[C@@H](COCc3ccccc3)NC(=O)C(C)(C)N)C2)C1=O (single isomer, unassigned) [Example 1.25] | 223 | 103 | 
CN1CC(c2ccccc2)C2(CCCN(C(=O)[C@@H](COCc3ccccc3)NC(=O)C(C)(N)C(F)(F)F)C2)C1=O (stereo partly drawn) [Example 1.73, 2-amino-N-((2R)-3-(benzyloxy)-1-(2-methyl-1-oxo-4-phenyl-2,7-diazaspiro[4.5]decan-7-yl)-1-oxopropan-2-yl)-3,3,3-trifluoro-2-methylpropanamide] | 1 | 79 | 
COc1ccc(COC[C@@H](NC(=O)C(C)(C)N)C(=O)N2CCCC3(C2)C(=O)N(C)CC3c2ccccc2)cc1 (single isomer, unassigned) [Example 6.0(ii), 2-Amino-N—[(R)-1-(4-methoxy-benzyloxymethyl)-2-((4S,5R)-2-methyl-1-oxo-4-phenyl-2,7-diaza-spiro[4.5]dec-7-yl)-2-oxo-ethyl]-2-methyl-propionamide or 2-Amino-N—[(R)-1-(4-methoxy-benzyloxymethyl)-2-(4R,5S)-2-methyl-1-oxo-4-phenyl-2,7-diaza-spiro[4.5]dec-7-yl)-2-oxo-ethyl]-2-methyl-propionamide] | 268 | 103 | 
CC(C)(C)CN1CC(c2ccccc2)C2(CCCN(C(=O)[C@@H](COCc3ccccc3)NC(=O)C(C)(C)N)C2)C1=O (stereo partly drawn) [Example 1.75, 2-amino-N-((2R)-3-(benzyloxy)-1-(2-neopentyl-1-oxo-4-phenyl-2,7-diazaspiro[4.5]decan-7-yl)-1-oxopropan-2-yl)-2-methylpropanamide] | 176 | 87 | 
CN1CN(c2ccccc2)C2(CCCN(C(=O)[C@@H](COCc3ccccc3)NC(=O)C(C)(C)N)C2)C1=O (single isomer, unassigned) [Example 1.61] | 189 | 73 | 
COc1ccc(C2CN(C)C(=O)C23CCCN(C(=O)[C@@H](COCc2ccccc2)NC(=O)C(C)(C)N)C3)cc1 (stereo partly drawn) [Example 1.74, 2-amino-N-((2R)-3-(benzyloxy)-1-(4-(4-methoxyphenyl)-2-methyl-1-oxo-2,7-diazaspiro[4.5]decan-7-yl)-1-oxopropan-2-yl)-2-methylpropanamide] | 123 | 103 | 
CN1CC(c2ccccc2)C2(CCCN(C(=O)[C@@H](CCc3ccccc3)NC(=O)C(C)(C)N)C2)C1=O (single isomer, unassigned) [Example 1.28] | 194 | 106 | 
CN1CC(c2ccccc2)C2(CCCN(C(=O)[C@@H](COCC3CCCCC3)NC(=O)C(C)(C)N)C2)C1=O (single isomer, unassigned) [Example 1.60] | 171 | 98 | 
CC(C)(N)C(=O)N[C@H](COCc1ccccc1)C(=O)N1CCCC2(C1)C(=O)NCC2c1ccccc1 (single isomer, unassigned) [Example 1.4] |  | 100 | hGHS-R1a cAMP assay Emax/% [1]: 127%
CC(C)N1CC(c2ccccc2)C2(CCCN(C(=O)[C@@H](Cc3c[nH]c4ccccc34)NC(=O)C(C)(C)N)C2)C1=O (single isomer, unassigned) [Example 3.0(ii)] |  |  | EC50 (rat fundus; Rattus norvegicus): 15 nM; Emax (rat fundus; Rattus norvegicus): 85%
CC(C)N1CC(c2ccc(F)cc2)C2(CCCN(C(=O)[C@@H](COCc3ccccc3)NC(=O)C(C)(C)N)C2)C1=O (single isomer, unassigned) [Example 1.19] |  |  | EC50 (rat fundus): 23 nM; Emax/% (rat fundus): 124%
Cc1ccccc1C1CN(C)C(=O)C12CCCN(C(=O)[C@@H](COCc1ccccc1)NC(=O)C(C)(C)N)C2 (single isomer, unassigned) [Example 1.51] | 141 | 98 | 
Cc1ccc(C2CN(C)C(=O)C23CCCN(C(=O)[C@@H](COCc2ccccc2)NC(=O)C(C)(C)N)C3)cc1 (single isomer, unassigned) [Example 1.53] | 212 | 89 | 
CN1CC(c2ccc(F)cc2)C2(CCCN(C(=O)[C@@H](COCc3ccc(Cl)cc3)NC(=O)C(C)(C)N)C2)C1=O (single isomer, unassigned) [Example 1.57] | 173 | 84 | 
CN1C(=O)C2(CCCN(C(=O)[C@@H](COCc3ccccc3)NC(=O)C(C)(C)N)C2)C1c1ccccc1 (single isomer, unassigned) [Example 2.0(iii)] |  |  | EC50 (rat fundus): 70 nM; Emax/% (rat fundus): 70%
CN1CC(c2ccccc2)C2(CCCN(C(=O)[C@@H](CCCc3ccccc3)NC(=O)C(C)(C)N)C2)C1=O (single isomer, unassigned) [Example 1.33] |  |  | EC50 (rat fundus): 84 nM; Emax/% (rat fundus): 131%
CC(C)N1CC(c2ccccc2)C2(CCCN(C(=O)[C@@H](COCc3ccccc3)NC(=O)C(C)(C)N)C2)C1=O (single isomer, unassigned) [Example 1.6] |  |  | EC50 (rat fundus): 373 nM; Emax/% (rat fundus): 70%
CC(C)(N)C(=O)N[C@H](COCc1ccccc1)C(=O)N1CCCC2(C1)C(=O)NCC2c1ccccc1 (single isomer, unassigned) [Example 1.49] |  |  | hGHS-R1a cAMP assay Emax/% [1]: 88%
CC(C)(N)C(=O)N[C@H](COCc1ccccc1)C(=O)N1CCC2(CC1)CN(S(C)(=O)=O)c1ccccc12 [MK-0677, reference compound] |  |  | Emax ([2]; compared with ghrelin): same Emax as ghrelin
CC(C)N1CC(c2ccc(F)cc2)C2(CCCN(C(=O)[C@@H](COCc3ccccc3)NC(=O)C(C)(C)N)C2)C1=O (single isomer, unassigned) [Example 1.18] |  |  | Emax (rat fundus; Rattus norvegicus): 117%; EC50 (rat fundus): 148 nM
